System: Male Syrian hamsters, feed enriched with 0.35% cholesterol
Assay: Hypocholesterolemic activity of carob fiber and statins in vivo
Set-up: species or system Syrian hamster
Settings: 28 days, in feed: carob fiber 2.5%, simvastatin 1.5 mg %
Source text: Determination of the Hypocholesterolemic Activity of Carob Fiber and Statins In Vivo Hamsters are seen as a suitable animal model for propounding the present invention, even if the metabolic processes in hamsters and humans differ slightly. At all events, the two substances tested here in combination each give alone in humans a reducing effect on the serum cholesterol values, in particular on LDL cholesterol. The effect of a combined administration of carob fiber and a statin, here simvastatin, in this model should therefore also give conclusions for humans. Male Syrian hamsters (100-120 g at the start of the study) received feed enriched with 0.35% cholesterol. […] The hamsters were divided into groups of 9 animals and treated with the test substances over a period of 28 days. After the animals were anesthetized, blood was obtained for determining the serum cholesterol values. The serum cholesterol contents were determined after obtaining the plasma from whole blood using a commercially obtained enzyme test kit. The total cholesterol content of the test groups thus determined were compared with the results of a control group which received no test substances.

Q: Which “Total cholesterol in blood serum” value (0.35% cholesterol feed, control 7.65) does the source give for `CCC(C)(C)C(=O)O[C@H]1C[C@@H](C)C=C2C=C[C@H](C)[C@H](CC[C@@H]3C[C@@H](O)CC(=O)O3)[C@H]21` [Simvastatin, simvastatin] here?
A: Its value is 6.50 mmol/L.

Q: And the “Changes from the control in %” value (total serum cholesterol vs control group)?
A: Its value is 15%.

From patent US20060062862A1, “Cholesterol-reducing agent made of dietary fibre and cholesterol-reducing substances” (priority 2002, published 2006)
